This is an account of results in US20240270786A1, “STEROID COMPOUNDS” (Epirium Bio Inc., priority 2022, published 2024).

In assay [1] the test system is mitochondrial ATP synthase. Put plainly: ATP hydrolysis (acidification, Seahorse XF96) in fresh heart mitochondria. It counts as biochemical, mouse. The conditions noted are these: fresh heart mitochondria (FIG. 1, FIG. 2). The source says: (§1) To assess whether the fraction of synthetic and reverse hydrolytic activities of mitochondrial ATP synthase can be measured in the same preparation, a protocol was developed to monitor changes in oxygen consumption and proton release in response to changes in mitochondrial ATP synthase activity. The proton released and the concomitant changes in the pH can be monitored using the ECAR (extracellular acidification) channel in the Agilent Seahorse XF analyzer using isolated mitochondria, to ensure that the changes in pH cannot be attributed to glycolysis or other contributors to ECAR.
Mice were anesthetized with isoflurane followed by a cervical dislocation, and the heart was immediately removed and placed in ice cold relaxation buffer (5 mM sodium pyrophosphate, 100 mM KCl, 5 mM EGTA, 5 mM HEPES; pH 7.4). The heart was squeezed with tweezers to remove blood, minced with scissors, and then placed in a glass-glass Dounce homogenizer with 3 mL of HES homogenization buffer (250 mM sucrose, 5 mM HEPES, 1 mM EDTA; pH to 7.2, adjusted with KOH). The heart tissue was homogenized first with the loose pestle and followed by the tight pestle. The homogenized tissue was placed in a pre-chilled 15 mL conical tube and centrifuged at 900×g (4° C.) for 10 minutes (min). The supernatant was removed, placed in a new tube and centrifuged again at 900×g for 10 min. The supernatant was then transferred to 2 mL microcentrifuge tubes and centrifuged at 10,000×g (4° C.) for 10 min. The mitochondrial pellets were re-suspended in ice cold HES buffer and mitochondrial protein was measured with a BCA assay (Pierce). The concentrated mitochondrial pellet was stored on ice. […]
ATP hydrolysis capacity or state 4 acidification was measured using Seahorse XF96 as described in Divakaruni et al. (2018) Anal Biochem 552:60-65 and Acin-Perez et al. (2021) Life 11(9):949, in MAS (70 mM Sucrose, 220 mM Mannitol, 5 mM KH2PO4, 5 mM MgCl2, 1 mM EGTA, 2 mM HEPES; pH 7.2). […]

Assay [2] relates to mitochondrial ATP synthase. Put plainly: ATP synthesis (oxygen consumption, Seahorse XF96) in fresh heart mitochondria. Type of assay: biochemical, mouse. Conditions: Complex I or Complex II substrates (FIG. 1, FIG. 2).
Excerpt: as §1
Mice were anesthetized with isoflurane followed by a cervical dislocation, and the heart was immediately removed and placed in ice cold relaxation buffer (5 mM sodium pyrophosphate, 100 mM KCl, 5 mM EGTA, 5 mM HEPES; pH 7.4). […] The mitochondrial pellets were re-suspended in ice cold HES buffer and mitochondrial protein was measured with a BCA assay (Pierce). […]
Oxygen consumption was measured in isolated fresh intact mitochondria from mouse heart, as oxygen consumption is linked to maximal ATP synthesis and proton release when mitochondria are respiring either in the presence of substrates and ADP (ATP synthesizing mitochondria or state 3) or in the presence of substrates but not ADP (state 4). […]

With `CN1C(=O)CC[C@@]2(C)C1=CCC1C2[C@@H](O)C[C@@]2(C)C1CC[C@@H]2NC(=O)C1CC1` (stereo partly drawn) [Compound 26, N-((4aR,5S,6aS,7S)-5-hydroxy-1,4a,6a-trimethyl-2-oxo-2,3,4,4a,4b,5,6,6a,7,8,9,9a,9b,10-tetradecahydro-1H-indeno[5,4-f]quinolin-7-yl)cyclopropanecarboxamide], the ATP hydrolysis entry in assay [1] was “only mild changes in hydrolysis”. Also, in assay [2], the ATP synthesis entry is reported as “decreased ATP synthesis at the highest concentration”.

Turning to `CNC(=O)[C@H]1CCC2C3CC=C4N(C)C(=O)CC[C@]4(C)C3[C@@H](O)C[C@@]21C` (stereo partly drawn) [Compound 40, (4aR,5S,6aS)-5-hydroxy-N,1,4a,6a-tetramethyl-2-oxo-2,3,4,4a,4b,5,6,6a,7,8,9,9a,9b,10-tetradecahydro-1H-indeno[5,4-f] quinoline-7-carboxamide], the ATP hydrolysis result in assay [1] is recorded as “only mild changes in hydrolysis”.
